Experimental data reported in patent publication US8778966B2, “Quinolinone derivatives as PARP and tank inhibitors” (Janssen Pharmaceutica, NV, priority 2007, dated 2014).

Experiments:
tubulin = assay: Tubulin polymerization assay; assay type: biochemical; set-up: key: a compound showing 0 to 50% inhibition at 20 μM is reported as score 1; Score 2 compounds are defined as compound showing more than 50% inhibition at 20 μM and less than 50% inhibition at 5 μM; a compound showing more than 50% inhibition at 5 μM is reported as score 3; settings: tested at 20 μM and 5 μM
Procedure, shortened: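 Cytoskeleton kit tubulin was run in a 10 µl final volume at 37 °C, with fluorescence read every minute for 1 h. Polymerization was taken as the maximum slope (4-point linear regression) and expressed as % of no-compound control. Compounds were tested at 20 µM, then at 5 µM if inhibition exceeded 50%, and scored by % inhibition.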

TANK-2 enzyme = molecular target: T1, TANK-2 enzyme (Homo sapiens, UniProt Q9H2K2); assay: In vitro Scintillation Proximity Assay (SPA) for TANK-2 inhibitory activity; assay type: biochemical; settings: read-out: in vitro SPA assay TANK-2 pIC50 (converted)
T1 construct: made in house
T1 sequence (Q9H2K2 1-1166): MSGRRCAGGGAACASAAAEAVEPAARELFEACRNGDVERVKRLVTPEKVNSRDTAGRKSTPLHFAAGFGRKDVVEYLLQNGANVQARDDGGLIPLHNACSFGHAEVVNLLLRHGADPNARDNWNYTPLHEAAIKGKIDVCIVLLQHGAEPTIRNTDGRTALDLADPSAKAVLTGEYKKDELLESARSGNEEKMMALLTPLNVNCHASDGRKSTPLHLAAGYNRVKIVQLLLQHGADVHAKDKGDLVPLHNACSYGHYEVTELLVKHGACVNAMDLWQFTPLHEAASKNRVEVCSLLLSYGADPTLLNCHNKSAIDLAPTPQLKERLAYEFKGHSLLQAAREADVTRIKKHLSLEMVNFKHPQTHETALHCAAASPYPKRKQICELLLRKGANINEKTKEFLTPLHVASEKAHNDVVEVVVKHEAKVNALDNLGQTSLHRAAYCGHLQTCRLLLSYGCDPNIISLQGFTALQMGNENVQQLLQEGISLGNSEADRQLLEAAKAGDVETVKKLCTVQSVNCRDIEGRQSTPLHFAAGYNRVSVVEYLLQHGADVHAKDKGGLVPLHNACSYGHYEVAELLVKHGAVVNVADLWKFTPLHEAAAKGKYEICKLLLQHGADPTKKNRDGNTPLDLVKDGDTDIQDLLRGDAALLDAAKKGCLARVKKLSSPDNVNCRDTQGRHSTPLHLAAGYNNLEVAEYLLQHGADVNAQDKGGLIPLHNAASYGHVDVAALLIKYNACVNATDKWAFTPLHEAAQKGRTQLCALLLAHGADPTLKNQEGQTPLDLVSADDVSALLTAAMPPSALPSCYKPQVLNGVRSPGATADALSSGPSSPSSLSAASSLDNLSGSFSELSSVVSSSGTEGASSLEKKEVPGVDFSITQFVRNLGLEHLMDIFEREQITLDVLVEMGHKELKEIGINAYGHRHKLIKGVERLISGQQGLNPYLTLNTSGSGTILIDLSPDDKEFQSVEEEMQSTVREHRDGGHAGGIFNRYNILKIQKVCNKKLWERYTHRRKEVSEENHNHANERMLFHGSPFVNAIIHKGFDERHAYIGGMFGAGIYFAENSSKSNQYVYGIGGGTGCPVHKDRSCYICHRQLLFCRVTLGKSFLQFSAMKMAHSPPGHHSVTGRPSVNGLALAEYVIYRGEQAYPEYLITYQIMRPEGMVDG
Procedure, shortened: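 TANK-2 (8 μg/ml final) auto-poly(ADP-ribosyl)ation with [3H]-NAD+/NAD donor was run in Ni flash plates in Tris/HCl pH 7.4 buffer with DTT and MgCl2, 120 min at room temperature, then stopped with excess NAD and scintillation-counted. Blank-corrected cpm was expressed as % of enzyme control, and IC50 was linearly interpolated and reported as pIC50.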

CCc1cc2ccc(C(C)(C#N)Cc3cccc(C#N)n3)cc2[nH]c1=O (single isomer, unassigned) [Compound 206]
tubulin polymerisation score (tubulin): 1 (a compound showing 0 to 50% inhibition at 20 μM is reported as score 1) | melting point: 121 °C | IC50 (TANK-2 enzyme): 50.1 nM

CCc1cc2ccc(C(C)(C#N)Cc3cccc(C#N)n3)cc2[nH]c1=O (single isomer, unassigned) [Compound 207]
tubulin polymerisation score (tubulin): 3 (a compound showing more than 50% inhibition at 5 μM is reported as score 3) | melting point: 133 °C | IC50 (TANK-2 enzyme): 31.6 nM

C#Cc1cccc(C[C@](C)(C#N)c2ccc3cc(CC)c(=O)[nH]c3c2)c1 [Compound 2]
tubulin polymerisation score (tubulin): 1 (a compound showing 0 to 50% inhibition at 20 μM is reported as score 1) | melting point: 125 °C | IC50 (TANK-2 enzyme): 398 nM

C#Cc1cccc(C[C@@](C)(C#N)c2ccc3cc(CC)c(=O)[nH]c3c2)c1 [Compound 3]
tubulin polymerisation score (tubulin): 2 | melting point: 128 °C | IC50 (TANK-2 enzyme): 501 nM

CCc1cc2ccc(C(C#N)(CC)Cc3ccccc3)cc2[nH]c1=O (stereo not shown) [Compound 32]
tubulin polymerisation score (tubulin): 1 (a compound showing 0 to 50% inhibition at 20 μM is reported as score 1) | melting point: 198 °C | IC50 (TANK-2 enzyme): 79.4 nM

COc1ccccc1-c1nc(CC(C)(C#N)c2ccc3cc(C)c(=O)[nH]c3c2)no1 (stereo not shown) [Compound 33]
tubulin polymerisation score (tubulin): 1 (a compound showing 0 to 50% inhibition at 20 μM is reported as score 1) | melting point: 130 °C | IC50 (TANK-2 enzyme): 158 nM

Cc1cc2ccc(C(C)(C#N)Cc3cccc(C#N)c3)cc2[nH]c1=O (stereo not shown) [Compound 34]
melting point: 260 °C | IC50 (TANK-2 enzyme): 31.6 nM

Cc1cc2ccc([C@@](C)(C#N)Cc3cccc(C#N)c3)cc2[nH]c1=O [Compound 35]
melting point: 233 °C | IC50 (TANK-2 enzyme): 316 nM

Cc1cc2ccc([C@](C)(C#N)Cc3cccc(C#N)c3)cc2[nH]c1=O [Compound 36]
tubulin polymerisation score (tubulin): 1 (a compound showing 0 to 50% inhibition at 20 μM is reported as score 1) | melting point: 226 °C | IC50 (TANK-2 enzyme): 200 nM

Cc1cc2ccc(C(C)(C#N)Cc3cccc(Cl)c3)cc2[nH]c1=O (stereo not shown) [Compound 37]
tubulin polymerisation score (tubulin): 1 (a compound showing 0 to 50% inhibition at 20 μM is reported as score 1) | melting point: 242 °C | IC50 (TANK-2 enzyme): 79.4 nM

CC(C)c1cc2ccc(C(C)(C#N)Cc3ccccc3)cc2[nH]c1=O (stereo not shown) [Compound 38]
melting point: 178 °C | IC50 (TANK-2 enzyme): 501 nM

CC(=O)c1cc2ccc(C(C)(C#N)Cc3ccccc3)cc2[nH]c1=O (stereo not shown) [Compound 39]
melting point: 194 °C | IC50 (TANK-2 enzyme): 316 nM

CCc1cc2ccc(C(C)(C#N)Cc3cccc(CCC#N)c3)cc2[nH]c1=O (stereo not shown) [Compound 169]
melting point: 149 °C | IC50 (TANK-2 enzyme): 398 nM

C=Cc1cccc(CC(C)(C#N)c2ccc3cc(CC)c(=O)[nH]c3c2)c1 (stereo not shown) [Compound 172]
melting point: 130 °C | IC50 (TANK-2 enzyme): 794 nM

CCc1cc2cc(F)c(C(C)(C#N)Cc3cccc(C#N)c3)cc2[nH]c1=O (stereo not shown) [Compound 175]
melting point: 202 °C | IC50 (TANK-2 enzyme): 100 nM

CCc1c(C)c2ccc(C(C)(C#N)Cc3cccc(C#N)c3)cc2[nH]c1=O (stereo not shown) [Compound 181]
melting point: 204 °C | IC50 (TANK-2 enzyme): 158 nM

CCc1cc2cc(OCCOC)c(C(C)(C#N)Cc3cccc(C#N)c3)cc2[nH]c1=O (stereo not shown) [Compound 182]
melting point: 130 °C | IC50 (TANK-2 enzyme): 31.6 nM

CCc1cc2ccc(C(C)(C#N)Cc3cccc(C#CCO)c3)cc2[nH]c1=O (stereo not shown) [Compound 183]
melting point: 182 °C | IC50 (TANK-2 enzyme): 794 nM

CCc1cc2ccc(C(F)(C#N)Cc3ccccc3)cc2[nH]c1=O (stereo not shown) [Compound 187]
melting point: 176 °C | IC50 (TANK-2 enzyme): 316 nM

CCc1cc2ccc(C(C)(C#N)CN(C)Cc3ccccc3)cc2[nH]c1=O (stereo not shown) [Compound 189]
melting point: 136 °C | IC50 (TANK-2 enzyme): 2510 nM

CCc1cc2ccc(C(C)(C#N)C(C)c3ccccc3)cc2[nH]c1=O (stereo not shown) [Compound 198]
melting point: 198 °C | IC50 (TANK-2 enzyme): 794 nM

CCc1cc2ccc([C@](C)(C#N)[C@@H](C)c3ccccc3)cc2[nH]c1=O [Compound 199]
melting point: 250 °C | IC50 (TANK-2 enzyme): 1260 nM

C#Cc1cccc(CC(C)(C#N)c2ccc3cc(CC)c(=O)[nH]c3c2)n1 (stereo not shown) [Compound 211]
melting point: 140 °C | IC50 (TANK-2 enzyme): 398 nM

CCc1cc2ccc(C(C)(C#N)Cc3cccc(N(C)C)n3)cc2[nH]c1=O (stereo not shown) [Compound 213]
melting point: 115 °C | IC50 (TANK-2 enzyme): 126 nM

CCc1cc2ccc(C(C)(C#N)Cc3cccc(I)n3)cc2[nH]c1=O (stereo not shown) [Compound 214]
melting point: 131 °C | IC50 (TANK-2 enzyme): 50.1 nM

CCOC(=O)c1cccc(CC(C)(C#N)c2ccc3cc(CC)c(=O)[nH]c3c2)n1 (stereo not shown) [Compound 215]
melting point: 60 °C | IC50 (TANK-2 enzyme): 2000 nM

CCc1cc2ccc(C(C)(C#N)Cc3cccc(COC)n3)cc2[nH]c1=O (stereo not shown) [Compound 216]
melting point: 153 °C | IC50 (TANK-2 enzyme): 1260 nM

CCc1cc2ccc(C(C)(C#N)Cc3cccc(CN)n3)cc2[nH]c1=O (stereo not shown) [Compound 221]
melting point: 65 °C | IC50 (TANK-2 enzyme): 251 nM
